Source: patent US12144365B2, “Emulsions and derivatives for infusing hydrophobic active agents into an edible product” (priority 2021, dated 2024)

Experiment: Potency loss of actives infused into isomalt based candy at 300° F.
Assay type: physicochemical

Compound | Potency loss %: 300° F. for 5 minutes, Infused by Quillaja extract emulsion [%] | Potency loss %: 300° F. for 5 minutes, Infused by gum acacia emulsion [%] | Potency loss %: 300° F. for 15 minutes, Infused by Quillaja extract emulsion [%] | Potency loss %: 300° F. for 15 minutes, Infused by gum acacia emulsion [%]
C=C(C)[C@@H]1CCC(C)=C[C@H]1c1c(O)cc(CCCCC)cc1O [CBD, cannabidiol, reference compound] | −5 | −3 | −4 | −2
CCCCCc1cc(O)c2c(c1)OC(C)(C)c1ccc(C)cc1-2 [CBN, cannabinol] | −1 | 0 | −1 | 0
C=C(C)[C@H]1CC=C(C)CC1 [Limonene, limonene] | −37 | −12 | −69 | −17
C=CC(=C)CCC=C(C)C [Myrcene, myrcene] | −26 | −10 | −51 | −15
CCCCCc1cc(O)c2c(c1)OC(C)(C)[C@@H]1CCC(C)=C[C@@H]21 [THC, tetrahydrocannabinol, reference compound] | −15 | −8 | −25 | −16
